Assay [1] addresses T1, recombinant human aromatase (CYP19) (Homo sapiens, UniProt P11511).
T1 sequence (P11511 1-503): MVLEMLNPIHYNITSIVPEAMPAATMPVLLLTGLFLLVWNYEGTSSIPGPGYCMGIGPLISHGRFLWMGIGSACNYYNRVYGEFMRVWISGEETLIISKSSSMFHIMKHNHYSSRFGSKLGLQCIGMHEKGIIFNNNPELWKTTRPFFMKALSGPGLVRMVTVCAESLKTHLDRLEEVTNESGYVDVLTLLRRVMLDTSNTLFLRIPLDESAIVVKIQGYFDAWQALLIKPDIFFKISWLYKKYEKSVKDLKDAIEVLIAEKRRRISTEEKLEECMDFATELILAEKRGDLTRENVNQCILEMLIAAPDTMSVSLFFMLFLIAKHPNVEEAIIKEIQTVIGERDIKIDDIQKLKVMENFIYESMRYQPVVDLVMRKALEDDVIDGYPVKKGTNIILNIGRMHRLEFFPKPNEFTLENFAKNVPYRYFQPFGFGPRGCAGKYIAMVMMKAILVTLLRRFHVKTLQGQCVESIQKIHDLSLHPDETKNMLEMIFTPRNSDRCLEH
Put plainly: Inhibition of recombinant human aromatase. The note with it: ratio of IC50 values vs 13 (24880 nM). The assay is classed as biochemical.

Assay [2] addresses T2, recombinant human ER-α (Homo sapiens, UniProt P03372).
T2 sequence (P03372 1-595): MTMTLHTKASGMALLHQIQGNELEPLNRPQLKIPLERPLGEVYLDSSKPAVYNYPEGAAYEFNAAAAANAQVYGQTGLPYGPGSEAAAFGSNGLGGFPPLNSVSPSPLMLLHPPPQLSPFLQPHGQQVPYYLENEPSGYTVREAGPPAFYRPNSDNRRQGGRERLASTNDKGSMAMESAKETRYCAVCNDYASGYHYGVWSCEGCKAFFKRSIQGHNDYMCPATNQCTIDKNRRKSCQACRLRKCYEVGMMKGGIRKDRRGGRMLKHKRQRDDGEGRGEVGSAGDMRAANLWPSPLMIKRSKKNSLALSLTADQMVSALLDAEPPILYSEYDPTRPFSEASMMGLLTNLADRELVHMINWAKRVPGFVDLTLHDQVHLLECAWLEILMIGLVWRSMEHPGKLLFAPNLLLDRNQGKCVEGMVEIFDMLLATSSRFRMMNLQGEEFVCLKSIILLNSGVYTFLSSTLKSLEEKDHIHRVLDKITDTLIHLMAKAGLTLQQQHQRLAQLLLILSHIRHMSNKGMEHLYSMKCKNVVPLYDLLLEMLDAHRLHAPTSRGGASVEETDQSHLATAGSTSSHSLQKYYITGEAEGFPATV
The note with it: at 100 μM; previously reported compounds included for comparison; cited from earlier work.

Assay [3] deals with T3, recombinant human ER-β (Homo sapiens, UniProt Q92731). In words: Binding affinity for recombinant human ER-β. The note with it: at 100 μM (100000 nM).
T3 sequence (Q92731 whole entry): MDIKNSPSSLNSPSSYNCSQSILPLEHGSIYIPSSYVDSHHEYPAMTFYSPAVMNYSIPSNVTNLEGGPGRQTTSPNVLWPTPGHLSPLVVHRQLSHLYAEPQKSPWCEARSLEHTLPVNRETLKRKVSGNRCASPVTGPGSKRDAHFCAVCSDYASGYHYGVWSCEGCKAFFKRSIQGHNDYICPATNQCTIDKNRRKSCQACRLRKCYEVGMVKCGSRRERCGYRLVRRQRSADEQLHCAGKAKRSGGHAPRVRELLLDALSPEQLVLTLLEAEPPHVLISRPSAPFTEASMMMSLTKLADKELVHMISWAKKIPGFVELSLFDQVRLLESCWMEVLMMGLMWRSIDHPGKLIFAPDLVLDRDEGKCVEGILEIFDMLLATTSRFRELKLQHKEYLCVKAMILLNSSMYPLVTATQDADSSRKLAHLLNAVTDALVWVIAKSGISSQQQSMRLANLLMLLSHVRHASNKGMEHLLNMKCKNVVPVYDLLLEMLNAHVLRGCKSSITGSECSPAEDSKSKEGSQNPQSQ
Assay [4] concerns the target T2, recombinant human ER-α. Put plainly: Binding affinity for recombinant human ER-α. The note with it: at 100 μM (100000 nM).
Assay [5] has as its system progesterone receptor (PGR) mRNA expression in MCF-7 cells. Put plainly: Antagonism of β-estradiol-stimulated progesterone receptor. The format is cell-based, human. The note with it: 1 μM compound in the presence of 10 nM β-estradiol, 24 hours.
Assay [6] deals with T3, recombinant human ER-β. The note with it: at 100 μM; previously reported compounds included for comparison; cited from earlier work.

Read-outs that look alike come from different tables or passages of the source.

As to `CC(=C(c1ccc(N)cc1)c1ccc(N)cc1)c1ccc([N+](=O)[O-])cc1` [Compound 12c, 4-(1-(4-Aminophenyl)-2-(4-nitrophenyl)prop-1-enyl)benzenamine], in assay [1], the “times more potent than 13 against aromatase” value is on record as 113 times.
Still for that read-out and setting: next, `CCC(=C(c1ccc(N)cc1)c1ccc(N)cc1)c1ccc([N+](=O)[O-])cc1` [Compound 12d, 4-(1-(4-Aminophenyl)-2-(4-nitrophenyl)but-1-enyl)benzenamine]: 400 times.
For the molecule `CCC(=C(c1ccc(O)cc1)c1ccc(O)cc1)c1ccccc1` [Compound 13, 4-(1-(4-Hydroxyphenyl)-2-phenylbut-1-enyl)phenol], at recombinant human ER-α [2], the ER-α percent competition is 80% competition at 100 μM.
Take `CC(=C(c1ccc(O)cc1)c1ccc(OCC(N)=O)cc1)c1ccc([N+](=O)[O-])cc1` [Compound 16a, (E,Z)-2-(4-(1-(4-Hydroxyphenyl)-2-(4-nitrophenyl)prop-1-enyl)phenoxy)-acetamide]: the ER-β percent competition on recombinant human ER-β [3] worked out at 0% competition at 100 μM. In addition, on recombinant human ER-α [4], the ER-α percent competition was found to be 0% competition at 100 μM.
As for `CCC(=C(c1ccc(O)cc1)c1ccc(OCC(N)=O)cc1)c1ccc([N+](=O)[O-])cc1` [Compound 16b, (E,Z)-2-(4-(1-(4-Hydroxyphenyl)-2-(4-nitrophenyl)but-1-enyl)phenoxy)-acetamide], at recombinant human ER-β [3], the ER-β percent competition amounted to 0% competition at 100 μM. On recombinant human ER-α [4], the ER-α percent competition amounted to 0% competition at 100 μM.
For the molecule `CCC(=C(c1ccc(N)cc1)c1ccc(NCC(N)=O)cc1)c1ccc([N+](=O)[O-])cc1` [Compound 16d, (E,Z)-2-(4-(1-(4-Aminophenyl)-2-(4-nitrophenyl)but-1-enyl)phenylamino)acetamide], the “PGR mRNA expression level relative to estradiol (100%)” value in assay [5] came to 19.6%.
For `CC/C(=C(/c1ccc(O)cc1)c1ccc(OCC(N)=O)cc1)c1ccccc1` [Compound 17, (E,Z)-2-(4-(1-(4-Hydroxyphenyl)-2-phenylbut-1-enyl)phenoxy)-acetamide], the ER-β percent competition on recombinant human ER-β [6] is listed as 71% competition at 100 μM. On recombinant human ER-α [2], the ER-α percent competition is recorded as 57% competition at 100 μM.

(Values after paper PMC5065788 (Bioorganic & medicinal chemistry, 2016).)
